Experimental data from US20220395496A1 (Hoffmann-La Roche Inc., priority 2019, published 2022).

How the values were obtained:
[1] = Human microsome stability assay; format: in vitro ADME; conditions: human liver microsomes, 1 μM test compound, 0.5 mg/mL protein, 37° C., pH 7.4
Description: Human Microsome Stability Assay
The human microsomal stability assay is used for early assessment of metabolic stability of a test compound in human liver microsomes. Compounds with high metabolic stability are considered to be desirable as they can provide favorable in vivo PK profiles and thus sufficient exposure in the targeted tissues or organs
Human liver microsomes (Cat. NO.: 452117, Corning, USA; Cat. NO.: H2610, Xenotech, USA) were preincubated with test compound for 10 minutes at 37° C. in 100 mM potassium phosphate buffer, pH 7.4. The reactions were initiated by adding NADPH regenerating system. The final incubation mixtures contained 1 μM test compound, 0.5 mg/mL liver microsomal protein, 1 mM MgCl2, 1 mM NADP, 1 unit/mL isocitric dehydrogenase and 6 mM isocitric acid in 100 mM potassium phosphate buffer, pH 7.4. After incubation times of 0, 3, 6, 9, 15 and 30 minutes at 37° C., 300 μL of cold acetonitrile (including internal standard) was added to 100 μL incubation mixture to terminate the reaction. Following precipitation and centrifugation, the amount of compound remaining in the samples were determined by LC-MS/MS. Controls of no NADPH regenerating system at zero and 30 minutes were also prepared and analyzed.

[2] = molecular target: T1, human TLR7 (Homo sapiens, UniProt Q9NYK1); test: HEK293-Blue-hTLR-7 cells assay (SEAP reporter, R848 stimulation); format: cell-based; conditions: HEK293-Blue-hTLR7 cells, R848, 20 hrs; lowest tested concentration 0.0032
T1 sequence (Q9NYK1 27-1049): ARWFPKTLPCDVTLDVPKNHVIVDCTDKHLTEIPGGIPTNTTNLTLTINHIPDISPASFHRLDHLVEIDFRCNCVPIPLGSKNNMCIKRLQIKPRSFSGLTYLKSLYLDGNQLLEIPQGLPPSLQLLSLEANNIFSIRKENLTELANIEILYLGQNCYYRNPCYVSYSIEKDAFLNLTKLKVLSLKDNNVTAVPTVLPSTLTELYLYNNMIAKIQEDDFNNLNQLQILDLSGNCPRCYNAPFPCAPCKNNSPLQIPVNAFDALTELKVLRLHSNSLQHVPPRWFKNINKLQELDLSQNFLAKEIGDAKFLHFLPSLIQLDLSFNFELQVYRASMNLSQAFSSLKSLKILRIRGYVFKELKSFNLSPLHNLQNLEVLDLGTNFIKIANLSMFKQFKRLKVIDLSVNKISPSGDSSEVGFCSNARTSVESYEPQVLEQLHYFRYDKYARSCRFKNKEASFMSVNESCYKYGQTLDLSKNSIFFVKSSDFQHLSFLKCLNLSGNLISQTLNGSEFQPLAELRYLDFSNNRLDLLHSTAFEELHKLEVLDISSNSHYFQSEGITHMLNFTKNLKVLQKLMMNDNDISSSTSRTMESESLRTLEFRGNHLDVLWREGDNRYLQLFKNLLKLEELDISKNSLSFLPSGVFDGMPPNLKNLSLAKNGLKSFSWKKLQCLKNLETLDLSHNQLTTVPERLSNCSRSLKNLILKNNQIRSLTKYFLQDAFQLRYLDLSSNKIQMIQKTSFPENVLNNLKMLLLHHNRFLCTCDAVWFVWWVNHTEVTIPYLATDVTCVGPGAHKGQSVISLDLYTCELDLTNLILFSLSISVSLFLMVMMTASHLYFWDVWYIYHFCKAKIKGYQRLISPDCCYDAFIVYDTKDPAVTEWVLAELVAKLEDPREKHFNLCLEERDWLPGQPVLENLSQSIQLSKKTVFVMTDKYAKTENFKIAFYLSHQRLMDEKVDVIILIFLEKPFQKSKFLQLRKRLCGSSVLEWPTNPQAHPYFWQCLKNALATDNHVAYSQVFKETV
Description: The following tests were carried out in order to determine the activity of the compounds of this invention in HEK293-Blue-hTLR-7/8/9 cells assay.
HEK293-Blue-hTLR-7 Cells Assay:
A stable HEK293-Blue-hTLR-7 cell line was purchased from InvivoGen (Cat. #: hkb-htlr7, San Diego, Calif., USA). These cells were originally designed for studying the stimulation of human TLR7 by monitoring the activation of NF-κB. A SEAP (secreted embryonic alkaline phosphatase) reporter gene was placed under the control of the IFN-β minimal promoter fused to five NF-κB and AP-1-binding sites. The SEAP was induced by activating NF-κB and AP-1 via stimulating HEK-Blue hTLR7 cells with TLR7 ligands. Therefore the reporter expression was declined by TLR7 antagonist under the stimulation of a ligand, such as R848 (Resiquimod), for incubation of 20 hrs. The cell culture supernatant SEAP reporter activity was determined using QUANTI-Blue™ kit (Cat. #: rep-qb1, Invivogen, San Diego, Calif., USA) at a wavelength of 640 nm, a detection medium that turns purple or blue in the presence of alkaline phosphatase.
HEK293-Blue-hTLR7 cells were incubated at a density of 250,000˜450,000 cells/mL in a volume of 170 μL in a 96-well plate in Dulbecco's Modified Eagle's medium (DMEM) containing 4.5 g/L glucose, 50 U/mL penicillin, […], […], 2 mM L-glutamine, 10% (v/v) heat-inactivated fetal bovine serum with addition of 20 μL test compound in a serial dilution in the presence of final DMSO at 1% and 10 μL of 20 uM R848 in above DMEM, perform incubation under 37° C. in a CO2 incubator for 20 hrs. Then 20 μL of the supernatant from each well was incubated with 180 μL Quanti-blue substrate solution at 37° C. for 2 hrs and the absorbance was read at 620-655 nm using a spectrophotometer. The signalling pathway that TLR7 activation leads to downstream NF-κB activation has been widely accepted, and therefore similar reporter assay was modified for evaluating TLR7 antagonist.

Q: Which results are given for C[C@H]1C[C@@H](NCc2ccc(N3CCNCC3)cc2)CN(c2ccc(C#N)c3ncccc23)C1 [Example 1, 5-[(3S,5R)-3-methyl-5-[(4-piperazin-1-ylphenyl)methylamino]1-piperidyl]quinoline-8-carbonitrile]?
A: HLM [1]: 0.438 L/h/kg; IC50 [2]: 0.016 µM

Q: Which HLM [1] does the source give for C[C@H]1C[C@@H](NCc2ccc(C3CCNCC3)cc2)CN(c2ccc(C#N)c3ncccc23)C1 [Example 2, 5-[(3S,5R)-3-methyl-5-[[4-(4-piperidyl)phenyl]methylamino]-1-piperidyl]quinoline-8-carbonitrile] here?
A: 0.42 L/h/kg

Q: What about the IC50 [2] of the same compound?
A: 0.032 µM

Q: Which HLM [1] does the source give for C[C@H]1C[C@@H](NCc2ccc(N3CCNCC3)nc2)CN(c2ccc(C#N)c3ncccc23)C1 [Example 10] here?
A: 0.444 L/h/kg

Q: And the IC50 [2]?
A: 0.007 µM

Q: With C[C@H]1C[C@@H](N2Cc3ccc(N4CCNCC4)cc3C2)CN(c2ccc(C#N)c3ncccc23)C1 [Example 12, 5-[(3S,5R)-3-methyl-5-(5-piperazin-1-ylisoindolin-2-yl)-1-piperidyl]quinoline-8-carbonitrile] as the compound, how does the HLM [1] read?
A: 0.372 L/h/kg

Q: And the IC50 [2]?
A: 0.007 µM

Q: What does the source list for C[C@H]1C[C@@H](NCc2cnc(N3CCNCC3)nc2)CN(c2ccc(C#N)c3ncccc23)C1 [Example 17, 5-[(3S,5R)-3-methyl-5-[(2-piperazin-1-ylpyrimidin-5-yl)methylamino]-1-piperidyl]quinoline-8-carbonitrile]?
A: HLM [1]: 0.408 L/h/kg; IC50 [2]: 0.007 µM

Q: For C[C@H]1C[C@@H](NCc2ccc(N3CCNCC3)cc2)CN(c2ccc(C#N)n3nccc23)C1 [Example 21, 4-[(3S,5R)-3-methyl-5-[(4-piperazin-1-ylphenyl)methylamino]-1-piperidyl]pyrazolo[1,5-a]pyridine-7-carbonitrile], which HLM [1] is on record?
A: 0.372 L/h/kg

Q: What about the IC50 [2] of the same compound?
A: 0.063 µM

Q: Which HLM [1] does the source give for C[C@H]1C[C@@H](N2Cc3cc(N4CCNCC4)cnc3C2)CN(c2ccc(C#N)c3ncccc23)C1 [Example 23, 5-[(3S,5R)-3-methyl-5-(3-piperazin-1-yl-5,7-dihydropyrrolo[3,4-b]pyridin-6-yl)-1-piperidyl]quinoline-8-carbonitrile] here?
A: 0.438 L/h/kg

Q: What about the IC50 [2] of the same compound?
A: 0.023 µM

Q: For C[C@H]1C[C@@H](NCc2ccccc2)CN(c2ccc(C#N)c3ncccc23)C1 [Example R1, reference compound], which HLM [1] is on record?
A: 1.04 L/h/kg

Q: And the IC50 [2]?
A: 0.089 µM

Q: Which HLM [1] does the source give for C[C@H]1C[C@@H](N2Cc3ccccc3C2)CN(c2ccc(C#N)c3ncccc23)C1 [Example R2, reference compound] here?
A: 1.1 L/h/kg

Q: What about the IC50 [2] of the same compound?
A: 0.048 µM
